Results reported in PubChem BioAssay (NCI).
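Test compounds were applied to cells in 96-well plates for 48 hours at 5 doses. The concentration for 50% growth inhibition is given as GI50. TGI: total growth inhibition.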

Test system: MDA-MB-468 breast
Experiment: inhibition of tumour cell growth, NCI panel, 48 h

SMILES	GI50	TGI
O=C1CCc2c(sc3[nH]c(=S)n(-c4cc(C(F)(F)F)cc(C(F)(F)F)c4)c(=O)c23)C1	0.248 µM	0.768 µM
Nc1ccn(C2CC(F)C(CO)O2)c(=O)n1 (configuration not stated)	> 100 µM	> 100 µM
Fc1ccc(-c2ncn(C3CCNCC3)c2-c2ccnc(Oc3ccc4c(c3)OCO4)n2)cc1	3.19 µM	8.02 µM
CCC(=O)N1C/C(=C/c2ccc(Cl)cc2)C(=O)/C(=C/c2ccc(Cl)cc2)C1	0.704 µM	2.08 µM
COC(=O)c1c2c(c(C)[n+]([O-])c1C)C(=O)C=C(NCc1ccccc1)C2=O	0.266 µM	1.14 µM
CCOc1ccc2c(-c3ccnc(Nc4cc(OC)cc(C(F)(F)F)c4)n3)cnn2n1	0.836 µM	> 20.5 µM
O=C(Nc1ccc(F)c(F)c1)c1cc(-c2ccc(F)cc2F)ccc1O	1.12 µM	4.35 µM
CCCCCCCCCCCC1=NC(C)(C)CN1C(C)(C)CO	1.82 µM	3.67 µM
CCOC(=O)NC1CCc2cc(OC)c(OC)c(OC)c2-c2ccc(OC)c(=O)cc21 (configuration not stated)	0.548 µM	> 100 µM
COc1c(C(C)=O)c(OCCCCOc2c(C(C)=O)c(OC)c3ccoc3c2OC)c(OC)c2occc12	2.31 µM	> 100 µM
C/C(=C\c1ccn(-c2ccccc2N)n1)[C@@H]1C[C@@H]2O[C@]2(C)CCC[C@H](C)[C@H](O)[C@@H](C)C(=O)C(C)(C)[C@@H](O)CC(=O)O1	0.0357 µM	0.732 µM
CN(C)c1ccc(Nc2c3ccccc3nc3ccccc23)cc1	0.632 µM	2.11 µM
COc1ccc([C@H](CC(=O)O)N2CCN(CCCc3ccc4c(n3)NCCC4)C2=O)cn1	0.111 µM	0.479 µM
Cc1ccc(/C=C(\C#N)c2cc3ccccc3n2C)cc1	0.406 µM	> 100 µM
Oc1c(C(Nc2ccccc2Br)c2ccccc2)ccc2cccnc12 (configuration not stated)	1.52 µM	6.12 µM
COc1cccc2c1C=CC1(O2)Oc2cccc(OC)c2C=C1C (configuration not stated)	0.402 µM	> 100 µM
c1ccc(-c2nn3c(c2-c2ccnc4cc(OCCN5CCOCC5)ccc24)CCC3)nc1	30.9 µM	> 100 µM
O=C(CCN1CCCC1)Nc1ccc2c(NCc3ccccc3)c3ccccc3nc2c1	0.274 µM	1.06 µM
O=[N+]([O-])c1cc[n+]([O-])c2ccccc12	0.135 µM	0.324 µM
C=C(C)[C@@H]1CCC=C2CC[C@]3(C)[C@H](CC[C@@H]4[C@@]5(C)CCCNC(C)(C)[C@@H]5CC[C@]43C)[C@H]21	1.61 µM	3.1 µM
CC1=CC2C(C(O)CC3(C)C2CC(C)C32OCOC23COCO3)C2(C)C/C(=C/O)C(=O)C=C12 (configuration not stated)	1.79 µM	3.47 µM
O=C(O)C[C@H](O)C[C@H](O)/C=C/c1c(C2CC2)nc2ccccc2c1-c1ccc(F)cc1	2.37 µM	12.1 µM

SMILES	GI50	TGI
Cc1cc2ncc(-c3cc4ccccc4c(N4CCN(C)CC4)n3)nc2cc1C	2.12 µM	5.11 µM
CNC(=O)NCC1OC(n2cnc3c(NC(=O)Nc4ccccc4)ncnc32)C(O[Si](C)(C)C(C)(C)C)C1O[Si](C)(C)C(C)(C)C (configuration not stated)	3.35 µM	13.9 µM
Cc1ccc(S(=O)(=O)Oc2ccc3c4c(c(=O)oc3c2)CCCCCC4)cc1	2.04 µM	> 100 µM
CCCCNNC(=O)c1ccc(Br)cc1	1.71 µM	> 50 µM
COc1ccc(C(=O)Cn2c(C(=O)c3ccccc3)nc3ccccc32)cc1	0.817 µM	5.77 µM
O=c1c2cc(C(F)(F)F)ccc2sc2c(NCCCNCCO)nc3ccccc3c12	1.57 µM	3.13 µM
C=C(C)[C@@H]1CC[C@]2(COP(=O)(OCC)OCC)CC[C@]3(C)[C@H](CC[C@@H]4[C@@]5(C)CCCNC(C)(C)[C@@H]5CC[C@]43C)[C@@H]12	1.39 µM	2.91 µM
NC(=N\N=C/c1ccc(O)cc1)/C(N)=N\N=C/c1ccc(O)cc1	> 100 µM	> 100 µM
CN(C)C(=O)Nc1nc2cc(Cl)c(Cl)cc2[nH]1	0.537 µM	> 91 µM
CC(C)(C)c1ccc(C(O)CCCN2CCC(C(O)(c3ccccc3)c3ccccc3)CC2)cc1 (configuration not stated)	1.15 µM	2.45 µM
COC(=O)c1cc(-c2ccccc2)[nH]c1N/N=C/c1c(Cl)cccc1Cl	0.185 µM	–
Cc1cn2c(/C=C3/C(=O)Nc4c3ccc3ccccc43)c(C(F)(F)F)nc2s1	1.46 µM	> 100 µM
Cc1ccc2nc3ccccc3c(NCc3ccc(Cl)cc3)c2c1	1.63 µM	6.38 µM
COc1ccc(-c2cc(=O)n(-c3nc4ccccc4[nH]3)[nH]2)cc1OC	4.3 µM	44.7 µM
COc1ccc(/C=C(/c2ccccc2)[N+](=O)[O-])c(OC)c1	1.51 µM	3.4 µM
CCn1c(=O)c2nc(SC)sc2n(-c2ccc(C)cc2)c1=O	62 µM	> 100 µM
Cc1ccc(/C=C/c2c(C(=O)/C=C/c3ccccc3)c(C)nc3ccccc23)cc1	1.8 µM	3.47 µM
N#Cc1nc(-c2ccc(F)cc2)oc1S(=O)(=O)N1CCCCC1	1.64 µM	3.3 µM
C=C1C(=O)O[C@H]2[C@H]1CC/C(COC(=O)CCCCCC(=O)OC/C1=C/CC[C@@]3(C)O[C@H]3[C@H]3OC(=O)C(=C)[C@@H]3CC1)=C\CC[C@@]1(C)O[C@@H]21	1.84 µM	7.1 µM
C=CC(=O)N1CCC(c2ccc(C(N)=O)c(-c3ccc(Oc4ccccc4)cc3)n2)CC1	5.76 µM	49.5 µM
COc1ccc2c(c1)nc(NNC(=O)c1cnccn1)c1cccn12	0.227 µM	1.66 µM
O=C(NCCN1CCOCC1)OCc1nc2nc(Cl)nc(N3CCOCC3)c2[nH]1	0.375 µM	3.79 µM
